Measurements taken from the NIST ThermoML archive (doi:10.1007/s10765-005-5570-x).

Assay: xn = mol fraction of the nth substance listed
Conditions: Liquid

ClCCCl [1,2-dichloroethane] + CCOC(C)=O
Conditions | mass density [kg/m3]
288.15 K, 101.33 kPa, x1 = 0.1036 | 936.39
288.15 K, 101.33 kPa, x1 = 0.2054 | 966.98
288.15 K, 101.33 kPa, x1 = 0.3019 | 996.99
288.15 K, 101.33 kPa, x1 = 0.4003 | 1028.99
288.15 K, 101.33 kPa, x1 = 0.4963 | 1061.48
288.15 K, 101.33 kPa, x1 = 0.602 | 1098.83
288.15 K, 101.33 kPa, x1 = 0.682 | 1128.5
288.15 K, 101.33 kPa, x1 = 0.8002 | 1174.96
288.15 K, 101.33 kPa, x1 = 0.9001 | 1216.19
288.15 K, 101.33 kPa, x1 = 1 | 1260.13
298.15 K, 101.33 kPa, x1 = 0.1036 | 924.54
298.15 K, 101.33 kPa, x1 = 0.2054 | 954.82
298.15 K, 101.33 kPa, x1 = 0.3019 | 984.84
298.15 K, 101.33 kPa, x1 = 0.4003 | 1016.64
298.15 K, 101.33 kPa, x1 = 0.4963 | 1048.95
298.15 K, 101.33 kPa, x1 = 0.602 | 1086.09
298.15 K, 101.33 kPa, x1 = 0.682 | 1115.64
298.15 K, 101.33 kPa, x1 = 0.8002 | 1161.78
298.15 K, 101.33 kPa, x1 = 0.9001 | 1202.79
298.15 K, 101.33 kPa, x1 = 1 | 1246.59
298.15 K, 200 kPa, x1 = 0.2995 | 983.88
298.15 K, 200 kPa, x1 = 0.5013 | 1046.97
298.15 K, 200 kPa, x1 = 0.6994 | 1120.18
298.15 K, 500 kPa, x1 = 0.2995 | 984.27
298.15 K, 600 kPa, x1 = 0.5013 | 1047.36
298.15 K, 600 kPa, x1 = 0.6994 | 1120.72
298.15 K, 1100 kPa, x1 = 0.5013 | 1047.97
298.15 K, 1200 kPa, x1 = 0.2995 | 985.01
298.15 K, 1200 kPa, x1 = 0.6994 | 1121.21
298.15 K, 2100 kPa, x1 = 0.5013 | 1049.05
298.15 K, 2100 kPa, x1 = 0.6994 | 1122.19
298.15 K, 2300 kPa, x1 = 0.2995 | 986.02
298.15 K, 2900 kPa, x1 = 0.2995 | 986.78
298.15 K, 3000 kPa, x1 = 0.6994 | 1122.99
298.15 K, 3200 kPa, x1 = 0.5013 | 1050.04
298.15 K, 3900 kPa, x1 = 0.5013 | 1050.82
298.15 K, 4000 kPa, x1 = 0.2995 | 987.78
298.15 K, 4000 kPa, x1 = 0.6994 | 1124.04
298.15 K, 4800 kPa, x1 = 0.5013 | 1051.57
298.15 K, 4800 kPa, x1 = 0.6994 | 1124.91
298.15 K, 5000 kPa, x1 = 0.2995 | 988.82
298.15 K, 5900 kPa, x1 = 0.2995 | 989.64
298.15 K, 6100 kPa, x1 = 0.5013 | 1052.93
298.15 K, 6100 kPa, x1 = 0.6994 | 1126.11
298.15 K, 6900 kPa, x1 = 0.2995 | 990.62
298.15 K, 7000 kPa, x1 = 0.6994 | 1126.84
298.15 K, 7100 kPa, x1 = 0.5013 | 1053.82
298.15 K, 7800 kPa, x1 = 0.2995 | 991.51
298.15 K, 7800 kPa, x1 = 0.5013 | 1054.57
298.15 K, 8000 kPa, x1 = 0.6994 | 1127.94
298.15 K, 8600 kPa, x1 = 0.2995 | 992.31
298.15 K, 8800 kPa, x1 = 0.6994 | 1128.76
298.15 K, 9000 kPa, x1 = 0.5013 | 1055.76
298.15 K, 9800 kPa, x1 = 0.5013 | 1056.47
298.15 K, 9900 kPa, x1 = 0.2995 | 993.71
298.15 K, 9900 kPa, x1 = 0.6994 | 1129.84
298.15 K, 11700 kPa, x1 = 0.2995 | 995.34
298.15 K, 11900 kPa, x1 = 0.5013 | 1058.45
298.15 K, 12000 kPa, x1 = 0.6994 | 1131.77
298.15 K, 13700 kPa, x1 = 0.6994 | 1133.5
298.15 K, 13800 kPa, x1 = 0.2995 | 997.35
298.15 K, 13800 kPa, x1 = 0.5013 | 1060.29
298.15 K, 15600 kPa, x1 = 0.6994 | 1135.23
298.15 K, 15900 kPa, x1 = 0.2995 | 999.26
298.15 K, 15900 kPa, x1 = 0.5013 | 1062.3
298.15 K, 17700 kPa, x1 = 0.6994 | 1137.32
298.15 K, 17900 kPa, x1 = 0.2995 | 1001.14
298.15 K, 18000 kPa, x1 = 0.5013 | 1064.25
298.15 K, 19400 kPa, x1 = 0.2995 | 1002.51
298.15 K, 19600 kPa, x1 = 0.6994 | 1139.1
298.15 K, 19900 kPa, x1 = 0.5013 | 1065.99
308.15 K, 101.33 kPa, x1 = 0.1036 | 911.53
308.15 K, 101.33 kPa, x1 = 0.2054 | 941.7
308.15 K, 101.33 kPa, x1 = 0.3019 | 971.32
308.15 K, 101.33 kPa, x1 = 0.4003 | 1002.93
308.15 K, 101.33 kPa, x1 = 0.4963 | 1035.07
308.15 K, 101.33 kPa, x1 = 0.602 | 1071.98
308.15 K, 101.33 kPa, x1 = 0.682 | 1101.3
308.15 K, 101.33 kPa, x1 = 0.8002 | 1147.08
308.15 K, 101.33 kPa, x1 = 0.9001 | 1187.86
308.15 K, 101.33 kPa, x1 = 1 | 1231.27
